Experimental data: the supplement of paper PMC10307832

Experiments:
Experiment in all cases: relative viability (nuclei count vs DMSO), 5 days (fraction); higher = more cells survive
[1] = compound: COC1=CC=C(C=C1)CN2C=CC3=C2C=C(C=C3)C(=O)NO + C[C@@H](Oc1cc(-c2cnn(C3CCNCC3)c2)cnc1N)c1c(Cl)ccc(F)c1Cl [Crizotinib] (partner 1 µM)
In short: (§1)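 Cells from lung cancer lines were seeded into 1536-well plates and, one day later, dosed by pin tool. Treatments were either a single drug or a fixed dose of an anchor drug with five library-drug doses (not always all listed) in √10 steps. After 5 days, nuclei were stained in a one-step fixation (final 0.05% Triton X-100, 1% formaldehyde, 1 ug/ml Hoechst) and counted on 4× images, and relative viability is the treated-to-vehicle nuclei ratio, as the median of duplicate plates.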

Veliparib + AZD7762 = compound: C[C@]1(c2nc3c(C(N)=O)cccc3[nH]2)CCCN1 [Veliparib] + NC(=O)Nc1cc(-c2cccc(F)c2)sc1C(=O)N[C@H]1CCCNC1 [AZD7762] (partner 0.2 µM)
In short: as §1

[2] = compound: COC1=CC=C(C=C1)CN2C=CC3=C2C=C(C=C3)C(=O)NO + CC(C)C[C@H](NC(=O)[C@H](Cc1ccccc1)NC(=O)c1cnccn1)B(O)O [Bortezomib] (partner 0.002 µM)
In short: as §1

Veliparib + Bortezomib = compound: C[C@]1(c2nc3c(C(N)=O)cccc3[nH]2)CCCN1 [Veliparib] + CC(C)C[C@H](NC(=O)[C@H](Cc1ccccc1)NC(=O)c1cnccn1)B(O)O [Bortezomib] (partner 0.002 µM)
In short: as §1

Cell Line	relative viability ([1]; first compound 0.08 µM)	relative viability ([1]; first compound 0.253 µM)	relative viability ([1]; first compound 0.8 µM)	relative viability ([1]; first compound 2.53 µM)	relative viability ([1]; first compound 8 µM)	relative viability (Veliparib + AZD7762; first compound 0.02 µM)	relative viability (Veliparib + AZD7762; first compound 0.06325 µM)	relative viability (Veliparib + AZD7762; first compound 0.2 µM)	relative viability (Veliparib + AZD7762; first compound 0.6325 µM)	relative viability (Veliparib + AZD7762; first compound 2 µM)	relative viability ([2]; first compound 0.08 µM)	relative viability ([2]; first compound 0.253 µM)	relative viability ([2]; first compound 0.8 µM)	relative viability ([2]; first compound 2.53 µM)	relative viability ([2]; first compound 8 µM)	relative viability (Veliparib + Bortezomib; first compound 0.06325 µM)	relative viability (Veliparib + Bortezomib; first compound 0.2 µM)	relative viability (Veliparib + Bortezomib; first compound 0.6325 µM)	relative viability (Veliparib + Bortezomib; first compound 2 µM)	relative viability (Veliparib + Bortezomib; first compound 0.02 µM)
LC-2-ad	0.33	0.531	0.467	0.408	0.397	0.606	0.822	0.865	0.876	0.801	0.964	0.989	1	0.959	0.769	0.987	0.985	0.944	1.05	
EKVX	0.767	0.762	1.16	0.891	0.934		0.731	0.833	0.728	0.806	1.03	0.762	1.16	1.08	1.21	0.893	0.888	0.978	1.16	0.806
LCLC-103H	1.1	0.94	1.15	0.984	1.02	0.794	0.73	0.702	0.75	0.687	0.982	0.998	1.11	1	1.06	0.963	1.01	1.05	0.933	0.822
NCI-H1703	0.158	0.552	0.619	0.637	0.72	0.0963	0.11	0.112	0.138	0.13	0.322	0.403	0.327	0.32	0.26	0.308	0.408	0.354	0.426	0.366
LU99A		0.573	0.541	0.562	0.553	0.403	0.385	0.322	0.283	0.317		1.13	1.14	1.06	0.938	1.1	0.833	1.06	1.29	1.16
NCI-H1437	0.661	0.961	0.993	0.989	0.939	0.996	1.07	1.17	1.13	1.09	0.38	0.483	0.527	0.581	0.393	0.496	0.472	0.47	0.474	0.424
HARA	0.194	1.1	0.99	1.09	0.951	0.346		0.302	0.308	0.573	0.536	1.22	1.15	1.12	1.13	1.1	0.995	1.11	1.16	1.13
NCI-H1666	1.18	1.08	1.08	0.992	1.03	0.872	0.823	0.799	0.918	0.881	0.621	1.02	0.782	0.84	0.774	0.599	0.81	0.666	0.875	0.879
CAL-12T	0.474	0.616	0.702	0.686	0.542	0.668	0.591	0.661	0.627	0.741	0.987		1.06	1.06	0.862	0.72	0.952	1.18	0.971	0.862
HCC-366		0.476	0.534	0.413	0.352	0.233	0.253	0.174	0.164	0.231		1.12	1.03	1.02	0.934	1.05	1.01	1.07	1.07	1.06
NCI-H1975	0.915	1.04	0.955	0.948	0.871	0.765	0.639	0.737	0.736	0.61	0.422	0.382	0.408	0.455	0.363	0.465	0.429	0.412	0.424	0.394
NCI-H460	0.774	0.959	0.846	0.882	0.917	0.635	0.469	0.602	0.583	0.516	1.02	0.984	1.04	1.14	1.01	0.952	1.01	1.07	1.09	
NCI-H1355	0.913	1.2	1.02	1.12	0.977	0.733	0.685	0.726	0.684	0.739	1.1	1.15	1.34	1.27	1.19	0.707	1.23	1.09	1.15	
NCI-H1755	0.789	0.852	0.858	0.928	0.879	0.479	0.543	0.5	0.443	0.444	0.91	0.992	0.949	0.992	0.97	0.892	0.924	0.954	0.868	0.888
HCC-78		0.373	0.345	0.342	0.344	0.599	0.434	0.664	0.643	0.591	0.474	0.49	0.437	0.543	0.51	0.482	0.639	0.428	0.474	0.537
NCI-H2405	0.649	0.865	0.87	0.925	0.819	0.772		0.81	0.734	0.738	0.546	0.924	1.02	1.01	0.961	0.858	0.978	0.988	0.93	0.96
NCI-H2085	0.804	0.944	0.853	0.928	0.926	0.813	0.984	1.05	1.03	0.911	1.05	1.24	1.14	1.1	1.08	0.915	0.898	1.07	0.862	0.655

Cell Line	relative viability ([1]; first compound 0.08 µM)	relative viability ([1]; first compound 0.253 µM)	relative viability ([1]; first compound 0.8 µM)	relative viability ([1]; first compound 2.53 µM)	relative viability ([1]; first compound 8 µM)	relative viability (Veliparib + AZD7762; first compound 0.02 µM)	relative viability (Veliparib + AZD7762; first compound 0.06325 µM)	relative viability (Veliparib + AZD7762; first compound 0.2 µM)	relative viability (Veliparib + AZD7762; first compound 0.6325 µM)	relative viability (Veliparib + AZD7762; first compound 2 µM)	relative viability ([2]; first compound 0.08 µM)	relative viability ([2]; first compound 0.253 µM)	relative viability ([2]; first compound 0.8 µM)	relative viability ([2]; first compound 2.53 µM)	relative viability ([2]; first compound 8 µM)	relative viability (Veliparib + Bortezomib; first compound 0.06325 µM)	relative viability (Veliparib + Bortezomib; first compound 0.2 µM)	relative viability (Veliparib + Bortezomib; first compound 0.6325 µM)	relative viability (Veliparib + Bortezomib; first compound 2 µM)	relative viability (Veliparib + Bortezomib; first compound 0.02 µM)
LXF-289	0.317	0.827	0.827	0.803	0.793	1.06	1.06	1.12	1.09	1.14	0.699	1	0.956	0.964	0.931	0.975	1	0.959	1.02	0.997
EPLC-272H	0.825	0.906	1.08	0.867	0.896		0.122	0.21	0.174	0.166	0.925	0.953	1.16	0.861	0.855	0.84	0.964	0.85	0.878	
NCI-H647	0.868	1	1.04	0.914	1.01	0.53	0.415	0.429	0.552	0.394	0.789	0.929	0.848	0.846	1.11	1	0.847	0.985	0.965	1.23
NCI-H2347	0.666	0.7	0.856	0.672	0.655	0.77	0.787	0.788	0.769	0.624		0.933	0.887	0.874	0.727	0.687	1.09	1.21	0.959	1.13
NCI-H1792	0.969	0.905	1.01	0.918	0.697	0.479	0.485	0.548	0.569	0.533	0.95	0.945	0.979	0.931	0.7	0.858	0.981	0.916	0.897	0.924
A-427		0.857	1.03	0.828	0.884	0.768	0.719	0.755	0.724	0.782		1.01	1.04	0.994	0.931	0.936	0.929	0.99	0.959	0.969
NCI-H1993	0.698	0.919	0.803	0.901	0.881		0.875	0.934	0.664	0.607	0.934	1.16	1.15	1.2	1.04	1.31	1.13	1.03	1.06	0.994
NCI-H2087	0.819	0.842	0.993	0.913	0.767	1.29	1.23	1.5	1.3	1.19	0.863	0.775	0.898	0.754	0.606	0.819	0.81	0.709	0.838	0.563
LCLC-97TM1		0.285	0.395	0.259	0.237	0.164	0.264	0.191	0.274	0.31		0.333	0.791	0.734	0.527	0.269	0.554	1.12	0.834	
HCC-827	0.87	0.968	0.898	0.961	0.878	0.26	0.335	0.2	0.236	0.222	1.01	0.929	1.05	0.896	1.04	0.914	1.01	1.13	1.13	1.02
NCI-H1915	0.777	0.892	0.935	0.905	0.857	0.661	0.643	0.517	0.556	0.519	0.769	0.921	0.989	0.924	1.02	1.02	0.842	0.915	0.755	0.939
NCI-H650	0.378	0.832	0.68	0.71	0.656	1.07	0.798	1.14	0.96	0.944	0.832	0.732	0.881	0.928	0.64	0.675	0.64	0.744	0.565	0.635
HCC-44	0.746	0.781	0.824	0.852	0.815	1.04	0.913	0.936	0.934	1.07	0.845	0.912	0.897	0.914	0.907	0.759	0.879	0.829	0.846	0.885
PC-14	0.675	0.898	0.908	0.924	0.809	0.357	0.313	0.335	0.385	0.327	0.706	0.726	0.954	0.956	0.937	0.807	0.795	0.714	0.757	0.865
RERF-LC-KJ	0.618	0.756	0.864	0.816	0.814	1.07	0.896	0.999	0.933	1.03	1.08	1.13	1.11	1.13	1.06	0.928	1.15	1.02	1.05	1.07
NCI-H1734		0.678	0.683	0.6	0.652		0.529	0.529	0.536	0.642		1.03	0.91	0.898	0.725	0.779	0.904	0.827	1.01	0.911
